Measurements from ChEMBL document CHEMBL4145505, “Rational design, chemical synthesis and biological evaluation of novel biguanides exploring species-specificity responsiveness of TAAR1 agonists” (Eur J Med Chem, 2018).
pEC50: −log10 of the molar value.

Key:
[1] = biological target: Trace amine-associated receptor 1 (Mus musculus) (UniProt Q923Y8); experiment: Agonist activity at mouse TAAR1 expressed in HEK293 cells assessed as cAMP accumulation at 10 uM after 20 mins by BRET assay relative to beta-PEA; assay type: functional, cell-based
[2] = biological target: T1, Trace amine-associated receptor 5 (Mus musculus, UniProt Q5QD14); experiment: Agonist activity at mouse TAAR5 expressed in HEK293 cells assessed as cAMP accumulation after 20 mins by BRET assay; assay type: functional, cell-based
T1 sequence (Q5QD14 whole entry): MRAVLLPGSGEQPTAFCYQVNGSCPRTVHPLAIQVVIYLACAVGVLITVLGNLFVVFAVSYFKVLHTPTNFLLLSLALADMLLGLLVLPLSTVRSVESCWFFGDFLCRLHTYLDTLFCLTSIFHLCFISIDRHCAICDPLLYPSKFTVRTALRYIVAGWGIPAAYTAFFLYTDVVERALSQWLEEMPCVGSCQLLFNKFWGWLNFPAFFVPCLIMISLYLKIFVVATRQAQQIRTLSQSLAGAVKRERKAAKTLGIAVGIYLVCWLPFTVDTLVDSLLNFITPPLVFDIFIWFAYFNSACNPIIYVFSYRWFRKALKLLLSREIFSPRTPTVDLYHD

[3] = biological target: Trace amine-associated receptor 1 (Mus musculus, UniProt Q923Y8); experiment: Agonist activity at mouse TAAR1 expressed in HEK293 cells assessed as cAMP accumulation after 20 mins by BRET assay; assay type: functional, cell-based
[4] = Selectivity ratio of EC50 for mouse TAAR1 to EC50 for human TAAR1
[5] = biological target: T2, Trace amine-associated receptor 1 (Homo sapiens, UniProt Q96RJ0); experiment: Agonist activity at human TAAR1 expressed in HEK293 cells assessed as cAMP accumulation after 20 mins by BRET assay; assay type: functional, cell-based
T2 sequence (Q96RJ0 whole entry): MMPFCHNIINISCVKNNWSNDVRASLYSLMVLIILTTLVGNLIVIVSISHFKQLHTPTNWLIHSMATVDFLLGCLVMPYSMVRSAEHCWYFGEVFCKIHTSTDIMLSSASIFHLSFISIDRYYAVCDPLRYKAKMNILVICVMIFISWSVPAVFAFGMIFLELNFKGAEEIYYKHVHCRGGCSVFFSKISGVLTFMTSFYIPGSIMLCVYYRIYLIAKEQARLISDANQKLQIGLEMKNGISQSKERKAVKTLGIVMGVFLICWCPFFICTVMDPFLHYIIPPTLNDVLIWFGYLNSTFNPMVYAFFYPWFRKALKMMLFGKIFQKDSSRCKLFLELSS

[6] = biological target: T3, Trace amine-associated receptor 1 (Homo sapiens) (UniProt Q96RJ0); experiment: Agonist activity at human TAAR1 expressed in HEK293 cells assessed as cAMP accumulation at 10 uM after 20 mins by BRET assay relative to beta-PEA; assay type: functional, cell-based
T3 sequence (whole entry): T2 sequence (Q96RJ0 whole entry)

Sequence of Trace amine-associated receptor 1 (Mus musculus, UniProt Q923Y8) (Q923Y8 whole entry, the tested form may be a part): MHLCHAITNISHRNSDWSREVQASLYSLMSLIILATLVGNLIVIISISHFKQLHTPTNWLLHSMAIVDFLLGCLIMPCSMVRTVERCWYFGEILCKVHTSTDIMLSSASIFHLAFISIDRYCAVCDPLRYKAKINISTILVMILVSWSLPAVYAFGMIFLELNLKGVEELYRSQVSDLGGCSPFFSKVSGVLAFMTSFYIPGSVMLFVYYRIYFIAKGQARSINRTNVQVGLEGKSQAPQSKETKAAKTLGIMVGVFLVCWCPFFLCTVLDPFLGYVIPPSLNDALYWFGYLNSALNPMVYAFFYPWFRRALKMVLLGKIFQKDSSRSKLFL
Sequence of Trace amine-associated receptor 1 (Mus musculus) (Q923Y8 whole entry): as the sequence (Q923Y8 whole entry, the tested form may be a part) above

SMILES: N=C(N)/N=C(\N)N1CCN(c2ncccn2)CC1
- Activity [1]: 40%
- pEC50 [2]: < 5.00
- pEC50 [3]: 5.05

SMILES: NCCc1ccccc1 [PHENETHYLAMINE]
- pEC50 [3]: 6.92

SMILES: N=C(N)/N=C(\N)N1CCN(c2cccc(C(F)(F)F)c2)CC1
- pEC50 [2]: < 5.00

SMILES: COc1cccc(N2CCN(/C(N)=N/C(=N)N)CC2)c1
- pEC50 [2]: < 5.00

SMILES: N=C(N)/N=C(\N)N1CCN(c2ccccc2Cl)CC1
- Activity [1]: 57%
- pEC50 [2]: < 5.00
- pEC50 [3]: 5.58

SMILES: N=C(N)NC(=N)N1CCN(c2ccccc2)CC1
- Activity [1]: 46%
- pEC50 [2]: < 5.00
- Ratio EC50 [4]: 1.7
- pEC50 [5]: 5.86
- pEC50 [3]: 5.62
- Activity [6]: 81%

SMILES: N=C(N)/N=C(\N)N1CCN(c2ccccn2)CC1
- pEC50 [2]: < 5.00

SMILES: COc1ccc(N2CCN(/C(N)=N/C(=N)N)CC2)cc1
- pEC50 [2]: < 5.00
- pEC50 [5]: 4.94
- Activity [6]: 110%

SMILES: N=C(N)/N=C(\N)N1CCN(c2cccc(Cl)c2)CC1
- pEC50 [2]: < 5.00

SMILES: N=C(N)/N=C(\N)N1CCN(c2ccc(Cl)cc2)CC1
- pEC50 [2]: < 5.00

SMILES: COc1ccccc1N1CCN(/C(N)=N/C(=N)N)CC1
- pEC50 [2]: < 5.00
